The source of these data is patent US20050043378A1, “LTA4H modulators” (priority 2003, published 2005).

For experiment [1], the target named is T1, recombinant human LTA4 hydrolase (rhLTA4H) (Homo sapiens, UniProt P09960).
T1 construct: made in house; host or cells: Spodoptera frugiperda (Sf-9) cells, baculovirus (pFastBac1)
T1 sequence (P09960 1-611): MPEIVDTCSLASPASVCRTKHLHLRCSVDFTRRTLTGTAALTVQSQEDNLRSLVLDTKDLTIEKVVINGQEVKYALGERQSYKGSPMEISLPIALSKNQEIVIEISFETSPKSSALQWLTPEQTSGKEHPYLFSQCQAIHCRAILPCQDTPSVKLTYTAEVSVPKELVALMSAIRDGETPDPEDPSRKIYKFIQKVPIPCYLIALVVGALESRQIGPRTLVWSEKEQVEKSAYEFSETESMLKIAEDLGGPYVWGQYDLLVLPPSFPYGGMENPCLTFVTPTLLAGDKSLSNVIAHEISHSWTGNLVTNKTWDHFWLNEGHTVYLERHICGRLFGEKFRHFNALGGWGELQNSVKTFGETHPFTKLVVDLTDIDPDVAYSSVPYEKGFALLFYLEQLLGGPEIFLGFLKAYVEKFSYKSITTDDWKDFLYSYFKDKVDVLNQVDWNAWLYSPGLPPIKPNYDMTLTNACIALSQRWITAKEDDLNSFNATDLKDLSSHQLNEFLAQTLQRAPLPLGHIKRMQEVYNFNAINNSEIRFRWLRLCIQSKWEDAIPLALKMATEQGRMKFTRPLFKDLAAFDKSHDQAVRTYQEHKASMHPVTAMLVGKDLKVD
The experiment in a line: Recombinant human LTA4 hydrolase assay for LTA4 hydrolase inhibitor activity.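 Further: enzyme expressed in Sf-9 insect cells, compound preincubated 10 min with enzyme, 10 min reaction at room temperature, uninhibited reaction as positive control, enzyme-free blank as negative control.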 Conditions: LTA4 substrate, LTB4 by immunoassay, average of one to three determinations. It counts as biochemical.

In experiment [2] the test system is LTB4 production by calcium ionophore-stimulated murine blood. The experiment in a line: LTB4 production by calcium ionophore-stimulated murine blood for LTA4H inhibitor activity. It counts as cell-based, CD-1 mice.
Experiment [3] relates to ex vivo stimulated LTB4 production in blood. As to the kind of experiment: Murine arachidonic acid-induced inflammation model: ex vivo stimulated LTB4 production. Also on record: species or system female Balb/c mice. Conditions: Mus musculus, read-out: % Inh. LTB4.
For experiment [4], the system named is neutrophil influx (myeloperoxidase, MPO). As to the kind of experiment: Murine arachidonic acid-induced inflammation model: neutrophil influx (myeloperoxidase activity in ear biopsies). Type of experiment: in vivo, female Balb/c mice. Conditions: Mus musculus, read-out: % Inh. MPO.
The subject of experiment [5] is ionophore-induced LTB4 production in mouse blood. Conditions: oral administration; cited from earlier work.
For experiment [6], the system named is ionophore-induced LTB4 production in rat peritoneum. Conditions: oral administration; cited from earlier work.
The test system of experiment [7] is colitis symptoms. Conditions: eight weeks of treatment, cotton top tamarins; cited from earlier work.
Setting [8] is: diluted CD-1 mouse whole blood, A23187 stimulation, LTB4 by immunoassay, read-out: IC50.
The mark [9] stands for this setting: 30 mg/kg oral gavage, blood taken 3 h after arachidonic acid, ex vivo A23187 stimulation, vs animals without inhibitor.
[10] abbreviates: 30 mg/kg oral gavage 60 min before topical arachidonic acid to ear, ear biopsies after 3 h, vs animals without inhibitor.

Each structure is given as a SMILES string. pIC50: −log10 of the molar value. Where a name gives a salt, the structure may show the parent alone. Read-outs that look alike come from different tables or passages of the source.

Usually pIC50 stands for −log10 of the IC50, conventionally taken in molar units. Take `O=C1C[C@H](O)CN1C1CCN(Cc2ccc(Oc3nc4ccccc4s3)cc2)CC1` [Example 447, 1-{1-[4-(Benzothiazol-2-yloxy)-benzyl]-piperidin-4-yl}-4-hydroxy-pyrrolidin-2-one]: the results for the negative logarithm of the IC50 (pIC50) in experiment [1] and in experiment [2] (setting [8]) were 7.55 and 6.62, respectively. Further, the inhibition at 30 mg/kg in experiment [3] (setting [9]) worked out at 90%. Further, the inhibition in vivo at 30 mg/kg in experiment [4] (setting [10]) is 48%.

With `O=C1C[C@@H](O)CN1C1CCN(Cc2ccc(Oc3nc4ccccc4s3)cc2)CC1` [Example 446, 1-{1-[4-(Benzothiazol-2-yloxy)-benzyl]-piperidin-4-yl}-4-hydroxy-pyrrolidin-2-one], the pIC50 in experiment [1] was 8.10; in experiment [2] (setting [8]), 6.88. Also, in experiment [3] (setting [9]), the inhibition at 30 mg/kg came to 64%. Moreover, the inhibition in vivo at 30 mg/kg in experiment [4] (setting [10]) was found to be 43%.

On to `O=C(O)CCN(CCc1ccc(Oc2nc3ccccc3s2)cc1)CC1CC1` [Example 180, 3-({2-[4-(Benzothiazol-2-yloxy)-phenyl]-ethyl}-cyclopropylmethyl-amino)-propionic acid], for which the pIC50 in experiment [1] was 8.70; in experiment [2] (setting [8]) it was 7.82. Besides, the inhibition at 30 mg/kg in experiment [3] (setting [9]) turned out to be 87%. Further, the inhibition in vivo at 30 mg/kg in experiment [4] (setting [10]) is 87%.

Regarding `CN(CCCOc1ccc(Cc2ccccc2)cc1)CCC(=O)O.Cl` [SC57461], in experiment [5], the “inhibition of ionophore-induced LTB4 production in mouse blood ex vivo” value was “caused inhibition of ionophore-induced LTB4 production”. The “inhibition of ionophore-induced LTB4 production in rat peritoneum in vivo” value in experiment [6] is given as “caused inhibition of ionophore-induced LTB4 production”. The colitis symptoms entry in experiment [7] is “significantly improved colitis symptoms”.

`c1ccc2sc(Oc3ccc(OCCn4nnnc4C4CCNCC4)cc3)nc2c1` [Example 206, 2-{4-[2-(5-Piperidin-4-yl-tetrazol-1-yl)-ethoxy]-phenoxy}-benzothiazole]: the pIC50 was 8.40 in experiment [1] and 7.37 in experiment [2] (setting [8]). The inhibition at 30 mg/kg in experiment [3] (setting [9]) is 67%. The inhibition in vivo at 30 mg/kg in experiment [4] (setting [10]) was 76%.

As for `O=C1C[C@H](O)CN1C1CCN(CCc2ccc(Oc3nc4ccccc4s3)cc2)CC1` [Example 336, (S)-1-(1-{2-[4-(Benzothiazol-2-yloxy)-phenyl]-ethyl}-piperidin-4-yl)-4-hydroxy-pyrrolidin-2-one], the figures for the pIC50 in experiment [1] and in experiment [2] (setting [8]) were 7.62 and 6.82, respectively. Further, the inhibition at 30 mg/kg in experiment [3] (setting [9]) worked out at 67%. For the same compound, the inhibition in vivo at 30 mg/kg in experiment [4] (setting [10]) came out at 0%.

Consider `O=C(CO)N1CCN(CCc2ccc(Oc3nc4ccccc4s3)cc2)CC1` [Example 325, 1-(4-{2-[4-(Benzothiazol-2-yloxy)-phenyl]-ethyl}-piperazin-1-yl)-2-hydroxy-ethanone], for which the pIC50 in experiment [1] was 7.92. The inhibition at 30 mg/kg in experiment [3] (setting [9]) was 76%. Besides, the inhibition in vivo at 30 mg/kg in experiment [4] (setting [10]) was found to be 67%.

For `OC1CCN(CCOc2ccc(Oc3nc4ccccc4o3)cc2)CC1` [Example 14, 1-{2-[4-(Benzooxazol-2-yloxy)-phenoxy]-ethyl}-piperidin-4-ol], the pIC50 in experiment [2] (Mus musculus) was 7.05. For the same compound, in experiment [3] (setting [9]), the inhibition at 30 mg/kg came out at 81%. Further, the inhibition in vivo at 30 mg/kg in experiment [4] (setting [10]) is 56%.

As for `OCC1CCCCN1CCOc1ccc(Oc2nc3ccccc3s2)cc1` (centres unmarked) [Example 263, (1-{2-[4-(Benzothiazol-2-yloxy)-phenoxy]-ethyl}-piperidin-2-yl)-methanol], the figures for the pIC50 in experiment [1] and in experiment [2] (setting [8]) were 8.30 and 7.31, respectively. For the same compound, in experiment [3] (setting [9]), the inhibition at 30 mg/kg stood at 0%. Besides, the inhibition in vivo at 30 mg/kg in experiment [4] (setting [10]) stood at 19%.

For `OC1(c2ccccc2)CCN(CCCOc2ccc(Oc3nc4ccccc4o3)cc2)CC1` [Example 27, 1-{3-[4-(Benzooxazol-2-yloxy)-phenoxy]-propyl}-4-phenyl-piperidin-4-ol], the pIC50 in experiment [1] was 8.15; in experiment [2] (Mus musculus) it was 6.84. The inhibition at 30 mg/kg in experiment [3] (po, 3 h) is 50%. Also, the inhibition in vivo at 30 mg/kg in experiment [4] (setting [10]) was determined as 72%.

For `CC(=O)N(C)C1CCN(Cc2ccc(Oc3nc4ccccc4s3)cc2)CC1` [Example 471, N-{1-[4-(Benzothiazol-2-yloxy)-benzyl]-piperidin-4-yl}-N-methyl-acetamide], in experiment [1], the negative-log IC50 (pIC50) is 7.72. In addition, the inhibition at 30 mg/kg in experiment [3] (setting [9]) is 90%. In experiment [4] (setting [10]), the inhibition in vivo at 30 mg/kg is 89%.

`O=C(O)C1CCN(CCOc2ccc(Oc3nc4ccccc4s3)cc2)CC1` [Example 18, 1-{2-[4-(Benzothiazol-2-yloxy)-phenoxy]-ethyl}-piperidine-4-carboxylic acid potassium salt]: the pIC50 in experiment [1] is 8.22; in experiment [2] (Mus musculus) it was 6.79. Further, the inhibition at 30 mg/kg in experiment [3] (po, 3 h) came out at 78%. Besides, in experiment [4] (po, 3 h), the inhibition in vivo at 30 mg/kg was found to be 83%.

Take `O=C(O)C1CCN(CCc2ccc(Oc3nc4ccccc4s3)cc2)CC1` [Example 150, 1-{2-[4-(Benzothiazol-2-yloxy)-phenyl]-ethyl}-piperidine-4-carboxylic acid]: the figures for the pIC50 in experiment [1] and in experiment [2] (setting [8]) were 9.00 and 7.28, respectively. Also, the inhibition at 30 mg/kg in experiment [3] (setting [9]) turned out to be 81%. Further, in experiment [4] (setting [10]), the inhibition in vivo at 30 mg/kg stood at 91%.

Regarding `CS(=O)(=O)NC1CCN(Cc2ccc(Oc3nc4ccccc4s3)cc2)CC1` [Example 361, N-{1-[4-(Benzothiazol-2-yloxy)-benzyl]-piperidin-4-yl}-methanesulfonamide], in experiment [1], the pIC50 was 8.10. In addition, the inhibition at 30 mg/kg in experiment [3] (setting [9]) amounted to 86%. The inhibition in vivo at 30 mg/kg in experiment [4] (setting [10]) was determined as 90%.

Take `OCC1CCN(Cc2ccc(Oc3nc4ccccc4s3)cc2)CC1` [Example 360, {1-[4-(Benzothiazol-2-yloxy)-benzyl]-piperidin-4-yl}-methanol]: the negative logarithm of the IC50 (pIC50) in experiment [1] was 7.48; in experiment [2] (setting [8]) it was 6.61. For the same compound, in experiment [3] (setting [9]), the inhibition at 30 mg/kg came to 87%. Further, in experiment [4] (setting [10]), the inhibition in vivo at 30 mg/kg is 88%.

Regarding `O=C(O)C1CCCN(CCc2ccc(Oc3nc4ccccc4s3)cc2)C1` (centres unmarked) [Example 155, 1-{2-[4-(Benzothiazol-2-yloxy)-phenyl]-ethyl}-piperidine-3-carboxylic acid], the results for the pIC50 in experiment [1] and in experiment [2] (setting [8]) were 8.05 and 6.90, respectively. Moreover, the inhibition at 30 mg/kg in experiment [3] (setting [9]) came to 96%. In addition, in experiment [4] (setting [10]), the inhibition in vivo at 30 mg/kg was 93%.
